# Laboratory results: patent US20050208125A1, “Substantially pure solid form of the enol tautomer of 3-indolypyruvic acid for use in the treatmetn of central nervous system disturbances” (priority 2002, published 2005)
# Legend:
# [1] = cited from earlier work
# [2] = system: Human melanoma cells (A2058 line); experiment: Melanoma cell invasion through Matrigel; assay type: cell-based; conditions: mean of three experiments ± SD
# Text: Matrigel is an extracellular biological matrix extracted from the Englebreth-Holm-Swarm murine sarcoma, composed of the major components of the basement membrane like laminin, entactin, collagen IV and proteoglycans. At room temperature, Matrigel forms a gel that can promote the growth of primary and continuous cell lines, and moreover can act as medium (substrate) for the adhesion, the differentiation, the migration and the invasion of tumor cell lines. Due to such features, a Matrigel test is commonly used in order to characterize the activity of substances capable of interfering with the motility of tumor cells and of inflammatory response cells. The test is conducted in wells partitioned by an 8 micron pore size membrane: Matrigel (12.4 micrograms) is uniformly spread on the membrane, whereas a chemoattractant (600 microliters), consisting of the supernatant of a murine hembryo cell line (3T3) is inserted in the bottom section of the well. The cells to be tested are seeded in the top section of the well, whereas the compounds that could interfere with their motility are placed above as well as below the membrane, so as to prevent the formation of a concentration gradient. At the end of the experiment, the cells that have crossed the membrane are counted.
# Human melanoma cells (A2058 line) were cultured in MEM medium, in a 5% CO2 at 37° C. Having reached the desired growth level, the (100.000) cells were seeded in the top section of the well. The enol of 3-indolylpyruvic acid and its salts, solubilized in the cell culture medium were placed in the top and bottom section of the well.
# [3] = system: LAN5 human neuroblastoma cells; experiment: Neuronal cell sprouting (neurite length); assay type: cell-based; conditions: 10 μM, 7 days; for average length of the neurites: ± SD, untreated 21.8 ± 8.8
# Protocol: LAN5 human neuroblastoma cells were seeded in 6-well plates (25.000 cells/well) in DMEM (Dulbecco's Modified Eagle's Medium) medium, additioned with 10% -fetal serum and 40 micrograms/ml gentamycin. After 24 hours, the enol tautomer of 3-indolylpyruvic acid or its derivatives, at an end concentration of 10 μM was added to the culture medium. The treatment was continued for 7 days, with medium replacement and addition of the compound under test every three days. At +7 days the cells were photopgraphed, using a Leitz Dialux 20 microscope. Then, neurite length was measured.
# The results, reported in the following Table, express, in microns, the average length of the neurites for each treatment; ± is the standard deviation: […]
# [4] = Incubation in rat tissue homogenates, enol form versus keto form; assay type: in vitro ADME; conditions: rat tissue homogenates
# Text: The near-pure enol tautomer of 3-indolylpyruvic acid, obtained by the method described above in examples 1 and 2, was investigated on rat tissue homogenates, in order to highlight its participation in the methabolic pathways characterizing the use of tryptophan and of its derivatives in mammalian cells. […] This phenomenon, ascribed to the presence in biological fluids of a specific tautomerase already reported in literature, allows the enol form to be subjected to biochemical transformations by specific enzymes active on the indoles. In particular, when the enol form of the ketoacid is incubated in rat liver homogenates, a gradual transformation of the enol of 3-indolylpyruvic acid in tryptophan is observed: the transformation is rather linear in time, is independent from the pH—at least in the 6.5÷7.5 interval—and it leads to the conversion of over the 50% of the ketoacid in 5 hours.
# rats = experiment: Pharmacological tests in rats, oral and IP; assay type: in vivo, rat; conditions: keto form solubilized in 0.1M NaOH
Structure (SMILES),Inhibition % ([2]; 125 μM) [%],Inhibition % ([2]; 250 μM) [%],average length of the neurites [3] [micrometers],effect on neurite length (in words) [3],further results
O=C(O)C(=O)Cc1c[nH]c2ccccc12 [3-indolylpyruvic acid],,,,,"time in which UV spectrum of the enol tautomer converted to that of the keto tautomer ([1]; Schwarz 1961): over 2 hours; time in which largely converted to the keto form ([1]; solution at pH 8.0, Schwarz and Bitancourt 1960): 20 min"
"O=C([O-])C(O)=Cc1c[nH]c2ccccc12.[Na+] [Na salt, sodium salt of the enol form of 3-indolylpyruvic acid]",52 ± 1,78 ± 3,28.3 ± 16.4,,
"O=C(O)Cc1c[nH]c2ccccc12 [3-Indolylacetic acid, reference compound]",,,23.3 ± 10.5,do not influence neurite length,
"O=C([O-])C(O)=Cc1c[nH]c2ccccc12.[K+] [K salt, potassium salt of the enol tautomer of 3-indolylpyruvic acid]",51 ± 3,78 ± 3,44.1 ± 12.1,,
"O=C([O-])C(O)=Cc1c[nH]c2ccccc12.O=C([O-])C(O)=Cc1c[nH]c2ccccc12.[Ca+2] [Ca salt, calcium salt of the enol form of 3-indolylpyruvic acid]",,,32.7 ± 8.3,,Inhibition % ([2]; 70 μM): 38 ± 10%; Inhibition % ([2]; 140 μM): 82 ± 6%
"O=C(O)C(=O)Cc1c[nH]c2ccccc12 [keto form, reference compound]",,,,,transformation to tryptophan or to 3-indolyl-lactic acid [4]: no significant transformations; effects on the considered pharmacological parameters (rats): no apparent effects
O=C(O)C(O)Cc1c[nH]c2ccccc12 (stereo not shown) [3-Indolyllactic acid],,,39.7 ± 11.8,noticeable effects on neurite length,
"O=C([O-])C(O)=Cc1c[nH]c2ccccc12.[Li+] [Li salt, lithium salt of the enol tautomer of 3-indolylpyruvic acid]",48 ± 7,91 ± 5,29.4 ± 8.5,,
"O=C(O)Cc1c[nH]c2ccc(O)cc12 [5-Hydroxy-Indolylacetic acid, reference compound]",,,25.7 ± 13.2,do not influence neurite length,
"O=C([O-])C(O)=Cc1c[nH]c2ccccc12.O=C([O-])C(O)=Cc1c[nH]c2ccccc12.[Mg+2] [Mg salt, magnesium salt of the enol form of 3-indolylpyruvic acid]",,,40.1 ± 17.5,,Inhibition % ([2]; 65 μM): 46 ± 14%; Inhibition % ([2]; 130 μM): 66 ± 7%
